# Experimental data published in PubChem BioAssay (NCI).
# Where “and” joins values, the source holds several entries; their conditions need not be identical. Equal values may be shown once.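 Step 1: Grow cells in 96-well plates. Step 2: Expose to compound for 48 hours at 5 concentrations. Step 3: Interpolate endpoints linearly; if unreached, use highest concentration. Abbreviation: GI50, concentration required for 50% inhibition of growth. TGI denotes the concentration required for complete inhibition of growth.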
# Columns and labels:
# Assay in all cases: NCI anticancer screen, dose series, 48 h
# A498 renal = test system: A498 renal
# A549 NSCLC = test system: A549 NSCLC
# ACHN renal = test system: ACHN renal
# HCT-15 colon = test system: HCT-15 colon
# HOP-92 NSCLC = test system: HOP-92 NSCLC
# IGROV1 ovarian = test system: IGROV1 ovarian
# K-562 leukemia = test system: K-562 leukemia
# MALME-3M melanoma = test system: MALME-3M melanoma
# NCI/ADR-RES ovarian = test system: NCI/ADR-RES ovarian
# SNB-75 CNS = test system: SNB-75 CNS
SMILES,GI50 (A498 renal),TGI (A498 renal),GI50 (A549 NSCLC),TGI (A549 NSCLC) [µM],TGI (ACHN renal) [µM],GI50 (HCT-15 colon),TGI (HCT-15 colon) [µM],GI50 (HOP-92 NSCLC),TGI (HOP-92 NSCLC),TGI (IGROV1 ovarian) [µM],TGI (K-562 leukemia) [µM],GI50 (MALME-3M melanoma) [µM],TGI (MALME-3M melanoma),GI50 (NCI/ADR-RES ovarian),TGI (NCI/ADR-RES ovarian) [µM],GI50 (SNB-75 CNS),TGI (SNB-75 CNS) [µM],GI50 (ACHN renal) [µM],GI50 (IGROV1 ovarian) [µM],GI50 (K-562 leukemia) [µM]
O=C(NOC[C@H](O)CO)c1ccc(F)c(F)c1Nc1ccc(I)cc1F,< 0.01 µM and 0.00351 µM,0.0647 µM and 0.0694 µM,0.946 µM and 0.1 µM,> 100,> 100,2.73 µM and 0.919 µM,> 100,0.0377 µM and 0.0201 µM,0.613 µM and 0.43 µM,> 100,> 100,< 0.01,< 0.01 µM and 0.00323 µM,12.3 µM and 6.3 µM,> 100,17.8 µM and > 10 µM,> 100,–,–,–
OCc1ccc(N2CCc3cccc(F)c3C2)cc1Cl,< 0.0145 µM,0.0405 µM,0.189 µM,15.7,67.3,10.4 µM,36.3,0.0873 µM,14.2 µM,0.101,16.5,24.1,63.6 µM,7.68 µM,37.1,13.9 µM,47.7,20.7,0.025,< 0.0206
O=c1c2cc(F)ccc2sc2c(N3CCNCC3)nc3ccc(F)cc3c12,1.67 µM,3.09 µM,–,–,2.8,1.44 µM,2.84,1.18 µM,2.52 µM,2.74,–,1.59,3.06 µM,1.75 µM,3.44,1.42 µM,2.82,1.48,1.34,–
COc1ccc(C2OC(=O)c3ccc4ccccc4c32)c(C)c1 (stereo not given),–,66.2 µM,–,> 100,> 100,–,> 60.5,–,> 89.8 µM,> 67.8,> 75.7,–,> 100 µM,–,5.61,–,44.7,–,–,–
CCOC(=O)c1cc2cc3c4c(c2oc1=O)CCCN4CCC3,–,79 µM,–,> 100,> 100,–,> 100,–,58 µM,> 100,> 100,–,> 100 µM,–,72.9,–,–,–,–,–
COc1cc2ncn(-c3cc(OCc4ccccc4C(F)(F)F)c(C(=O)N(C)C)s3)c2cc1OC,4.58 µM,> 23.5 µM,24.9 µM,> 25,> 25,> 25 µM,> 25,6.66 µM,> 23.9 µM,> 25,> 25,> 25,> 25 µM,> 17 µM,> 25,> 18.6 µM,> 25,> 25,> 25,> 21.3
O=C(O)c1ccc(CI)cc1,–,35.3 µM,–,33.8,30.1,–,39.8,–,31 µM,38.2,74.6,–,23.3 µM,–,34.8,–,49.9,–,–,–
Cn1c(C(=O)c2ccncc2)cc2ccccc21,26.2 µM,> 100 µM,> 100 µM,> 100,> 100,90.9 µM,> 100,40.2 µM,> 100 µM,> 100,> 100,> 100,> 100 µM,46.8 µM,> 100,85.6 µM,> 100,> 100,> 100,59.3
O=[N+]([O-])c1cc(Cl)c2[nH]c3c(Cl)cc([N+](=O)[O-])cc3c2c1,0.15 µM,1.36 µM,0.302 µM,2.9,–,0.355 µM,> 100,0.0596 µM,0.405 µM,> 100,> 100,0.265,4.04 µM,0.345 µM,–,0.511 µM,9.35,0.362,0.471,0.243
Nc1nonc1-c1nc2cnccc2n1C1CC1,1.97 µM,8.77 µM,6.39 µM,> 25,> 25,6.61 µM,> 25,0.502 µM,> 25 µM,> 25,> 25,> 15.9,> 25 µM,10.6 µM,> 25,3.02 µM,> 18.5,6.25,8.76,> 21
COc1ccc(-c2ccncc2)cc1C(N)=O,> 22.8 µM,> 25 µM,> 25 µM,> 25,> 25,> 25 µM,> 25,> 25 µM,> 25 µM,> 25,> 25,> 25,> 25 µM,> 25 µM,> 25,> 25 µM,> 25,> 25,> 25,> 25
NS(=O)(=O)c1ccc(-n2nc3c(c2-c2ccc(Cl)cc2)Cc2ccccc2-3)cc1,4.7 µM,19.1 µM,37.8 µM,> 100,34.6,19.7 µM,38.4,11.6 µM,24.5 µM,14.2,17.2,2.96,14.7 µM,19.6 µM,44.8,14.6 µM,30.5,19.8,2.58,4.98
COc1cc2nc(SCc3cc(OC)c(OC)c(OC)c3)n(Cc3ccccc3)c(=O)c2cc1OC,1.62 µM,7.87 µM,3.14 µM,> 100,24.1,1.08 µM,> 100,1.79 µM,8.97 µM,> 70.5,> 100,2.83,27 µM,2.33 µM,26.6,0.876 µM,6.23,4.83,7.82,0.875
[C](#Cc1ccccc1)[Hg][C]#Cc1ccccc1,> 100 µM,> 100 µM,50.1 µM,> 100,41.6,21.1 µM,43.7,21.1 µM,47.5 µM,97.5,> 100,27.9,54.7 µM,> 100 µM,> 100,> 100 µM,> 100,21.1,29.7,13.2
